The record followed here is patent US20120301402A1, “RAP1A AS A MARKER FOR CARDIAC ARRHYTHMIA” (NATIONWIDE CHILDREN'S HOSPITAL, INC., priority 2011, published 2012).

The subject of assay [1] is isolated ventricular myocytes. Kind of assay: After-contractions protocol in isolated ventricular myocytes. The class given is cell-based, mice. Conditions: 5 s stimulation, counted 40 s after stimulation withdrawn. The procedure: FIG. 10 provides graphs showing that aftercontractions increase in heterozygous Rap1A myocytes. Further investigation of the spontaneous waves was performed using an “after-contractions” protocol by stimulating for 5 seconds and counting the number of after-contractions that occur 40 seconds after the stimulation is withdrawn. (A) Rap1A-heterozygous myocytes have increased after-contractions compared to control wild-type (WT) myocytes. (B) Inhibition of protein kinase C (PKC) by bisindolylmaleimide I (BIM, 1 μM) increases after-contractions in control wild-type (WT) and Rap1A-heterozygous myocytes. (C) Protein kinase C (PKC) activation by phorbol myristate acetate (PMA, 150 nM) leads to a decrease in after-contractions in Rap1A-heterozygous myocytes. (D) Summary data of WT/Rap1A-heterozygous+/− BIM (Inhibitor) and PMA (Activator). Both drugs were incubated in isolated ventricular myocytes before measurements were taken to activate or inhibit PKC.

The test system of assay [2] is isolated Rap1A-heterozygous cardiac myocytes. The conditions noted are these: combination with isoproterenol, waves resumed after washout.
Experimental: Ventricular myocytes were isolated from male C57BL/6 control wild-type (WT) and Rap1A-heterozygous (Rap1a^+/−) mice. Whole hearts were cannulated and hung on a Langendorff apparatus and tissue treated for enzymatic digestion for 3-5 minutes. The ventricles were minced and myocytes were dissociated by trituration. Subsequently, the myocytes were filtered, centrifuged, and used for the studies within 6 hours of isolation. Calcium transients were measured by loading isolated myocytes with fluo 4-AM (10 μM) for 30 min, followed by an additional 30 min for intracellular deesterification. Cell fluorescence was measured by epifluorescence. The intracellular calcium concentration [Ca^2+]i of single cells was measured with excitation at 480±20 nm and emission at 535±25 nm. Data were expressed as ΔF/F0, where F is the fluorescence intensity, and F0 is the intensity at rest. Myocytes were stimulated at 1 Hz. Simultaneous measurement of shortening was also performed using edge detection. Data were expressed as cell shortening (μm). Myocytes were analyzed from 2-3 independent isolations per group.
Myocytes were analyzed from 2-3 independent isolations per group.

In the case of `CCCCCCCCCCCCCC(=O)O[C@@H]1[C@@H](C)[C@@]2(O)[C@@H](C=C(CO)C[C@]3(O)C(=O)C(C)=C[C@@H]23)[C@@H]2C(C)(C)[C@]12OC(C)=O` [phorbol myristate acetate], the After-contractions entry in assay [1] (Rap1A-heterozygous myocytes, 150 nM) was “decrease”.
For `CN(C)CCCn1cc(C2=C(c3c[nH]c4ccccc34)C(=O)NC2=O)c2ccccc21` [bisindolylmaleimide I], the After-contractions result in assay [1] (Rap1A-heterozygous myocytes, 1 μM) is reported as “increases”; in assay [1] (control wild-type (WT) myocytes, 1 μM) it was “increases”.
Take `Cc1cccc(C)c1OCC(C)N` (stereo not shown) [Mexiletine]: the “After-transients / spontaneous calcium waves” value in assay [2] was “rescued”.
